From patent publication US9556113B2, “Combination uses of dichloroacetate and oxamate, and their prodrugs, for cancer treatment” (The South Dakota Board of Regents, priority 2014, dated 2017)
Where a name gives a salt, the structure may show the parent alone.

Key:
[1] = system: HPV+E6E7 Ras tumor (E6/E7/Ras MOEs cells); assay: Tumor response to cisplatin/radiation therapy (CRT), HPV positive HNSCC mouse model; type: in vivo, C57Bl/6 mice; details: oxamate 15 mg/mouse; for tumor's response to CRT (tumor volume, FIG. 18): DCA 6 mg/mouse, daily i.p. on weekdays from day 11, with CRT
Protocol: FIG. 7 illustrates the effects of DCA plus oxamate on tumor growth (A) or on survival (B) with HPV+ model of HNSCC in wild-type C57Bl/6 mice. All mice received 3 rounds of cisplatin (0.132 mg/mouse) plus radiation (8 Gy/mouse) treatment (Tx) at weekly intervals starting […] after tumor initiation. Mice receiving DCA (6 mg/mouse) plus oxamate (15 mg/mouse) were treated every weekday, starting with the first chemoradiation treatment by i.p. injection.
FIG. 8 illustrates a comparison of prodrugs to DCA plus oxamate on tumor growth (A) or on survival (B) with HPV+ model of HNSCC in wild-type C57Bl/6 mice. All mice received 3 rounds of CRT [cisplatin (0.132 mg/mouse) plus radiation (8 Gy/mouse) treatment (Tx) at weekly intervals starting 11 days after tumor initiation]. Mice receiving DCA (6 mg/mouse) plus oxamate (2.2 mg/mouse) were treated every weekday starting with the first chemoradiation treatment by i.p. injection. Mice treated with AT-N4-001 or AT-N4-002 prodrugs (7.6 mg/mouse) were treated on the same schedule as mice treated with DCA+oxamate.
FIG. 18. The effects of DCA, oxamate, DCA plus oxamate on the responses of HPV+E6E7 Ras tumor to CRT. One million E6/E7/Ras MOEs cells were injected subcutaneously into the rear leg of wild-type C57Bl/6 mice. After 11 days, a treatment with DCA (6 mg/mouse) and oxamate (15 mg/mouse) were injected daily by i.p. on weekdays for the remainder of the experiment. All mice received three rounds of treatment with CRT (0.132 mg/mouse cisplatin and 8 Gy radiation, weekly starting at day 11). Tumor volume is mm^3.
FIG. 19 depicts the effects of DCA plus oxamate vs the effects of prodrug 1 or prodrug 2 on the responses of HPV+E6E7 Ras tumor to CRT. Tumors were initiated by injecting 0.5×10^6 E6/E7/Ras MOEs cells. After 11 days, a treatment with DCA (6 mg/mouse) plus oxamate (2 mg/mouse), or prodrug 1 (7.6 mg/mouse), or prodrug 2 (7.6 mg/mouse) was initiated daily by i.p. on weekdays. The doses of DCA and oxamate were equal molar equivalents as would be released from the prodrugs. All mice received three rounds of treatment with CRT (0.132 mg/mouse cisplatin and 8 Gy radiation, weekly starting at day 11). Tumor volume is in mm^3.
The effects of various treatments on tumor responses were carried out by examining whether the treatment could improve tumor's response to CRT with a HPV positive HNSCCs mouse model. CRT is a standard treatment for HPV-positive HNSCC in the clinic (46). […] Applicants also used this model to investigate the effects of lactate on CRT-induced immune-mediated cancer clearance (46) and DCA's effect on the tumor's response to CRT (unpublished data). The literature reported dosages of DCA and oxamate were used (6,23,52,53)(41).
To study the effects of the prodrugs on tumor growth in vivo, C57Bl/6 immune-competent mice implanted with E6/E7/Ras MOEs cells were used as described previously (46). All experiments were performed in accordance with institutional and national guidelines and regulations with the protocol approved by the Animal Care and Use Committee at Sanford Research. Briefly, 1×10^6 tumor HPV+HNSCC cells were injected into the right subcutaneous flank of syngeneic male C57Bl/6 mice. Eleven days after tumor initiation, treatment was initiated daily on weekdays by i.p. injection of vehicle, DCA, Oxamate, DCA+oxamate, prodrug 1, or prodrug 2. All mice received three rounds of treatment with cisplatin/radiation therapy (CRT: 0.132 mg/mouse cisplatin and 8 Gy radiation, weekly starting at day 11). Tumor dimensions were measured weekly to monitor growth. Mice with tumors reaching a volume of 3000 mm^3 or becoming substantially emaciated were euthanized.
To study the effects of the new prodrugs on tumor growth in vivo, C57Bl/6 immune-competent mice were used. Tumors were established on the right flank of the leg. After 11 days, treatment was initiated with daily i.p. injection of vehicle, AT-N4-001, or AT-N4-002. […]

E6E7/Ras MTE cells = assay: Clonogenic growth (colony formation); type: cell-based, mouse; details: 5 mM prodrugs, 10 mM DCA, 7 days, vs DMSO
Protocol: FIG. 4 illustrates prodrugs AT-N4-001 and AT-N4-002 inhibiting cell proliferation and colony growth of E6E7/Ras MTE cells. (A) E6E7/Ras MTE cultures were treated with DMSO (Con), AT-N4-001, or AT-N4-[…] 002 at the indicated concentration for one day. Live cell number was then determined using a trypan blue exclusion assay. (B) E6E7/Ras MTE cells were seeded on 100-mm plate at 500 cells per plate (in triplicate). After one day, cells were treated as indicated and allowed to grow until colonies of untreated controls reached 50 or more cells (7 days). Plates were stained with Coomassie blue to visualize the colonies. (C) Quantification of colonies described in B. Colonies with more than 15 cells were counted.
E6E7/Ras MTE cells are mouse tonsilar epithelial cells that have been transformed by HPV oncogenes E6 and E7 together with activated ras. They form tumors in mice and are a model of human HPV+HNSCC. These cells were treated in culture with either vehicle control (DMSO), AT-N4-001, or AT-N4-002 at concentrations of 1 mM, 2.5 mM and 5 mM for one day. Live cells were counted using a hemocytometer (FIG. 4A). […] The effects of the compounds on clonogenic growth of the cells were also tested. E6/E7/Ras MTE cells were seeded in 100 mm plates in triplicate, and the next day cells were treated with either vehicle control DMSO, 5 mM AT-N4-001, 5 mM AT-N4-002, or 10 mM DCA. DCA was used at a twice the concentration because the prodrugs each carry two molecules of DCA.

E6E7/Ras cells = assay: Lactate secretion into culture medium, enzyme based assay; type: cell-based, mouse; details: 5 mM each, 4 hours
Protocol: FIG. 5 illustrates the reduction of lactate secretion in cultured cells by prodrugs AT-N4-001 and AT-N4-002. E6E7Ras cells were plated in 100 mm dishes and grown to confluence. The medium was changed to bicarbonate-free DMEM-10% FBS with or without the indicated treatments (5 mM each). Four hours later the medium was collected and lactate was measured using an enzyme based assay from Eton Bioscience. Con indicates the control samples for the DCA and Oxamate samples. DMSO indicates the vehicle only control for the AT-N4-001 and AT-N4-002 prodrug samples.
AT-N4-001 and AT-N4-002 should each release two molecules of DCA and one molecule of oxamate. Both DCA and oxamate are expected to reduce cellular lactate production. Therefore, we examined the changes in lactate after treatment of E6E7/Ras cells with the prodrugs. E6E7/Ras cells were seeded into 100 mm dishes and the next day treated with 5 mM AT-N4-001, 5 mM AT-N4-002, 5 mM DCA plus 5 mM oxamate, or 5 mM DCA alone. Culture medium was collected after 4 hours of treatment and lactate levels were determined (FIG. 5). […] To confirm the effects of these compounds on lactate production, the extra cellular acidification rate (ECAR) was measured using a Seahorse XF24 Extracellular Flux analyzer. Since lactate is transported from cells together with a proton, acidification of the culture medium (ECAR) is an estimate of lactate production and the glycolytic rate of cells. In the experiment shown in FIG. 6A, ECAR measurements were initiated in the absence of glucose. At point A, glucose was added and ECAR measurements continued. […] At point B, additional glucose along with vehicle (control), DCA plus oxamate, or AT-N4-002 was added. […] This is shown by a bar graph in FIG. 6B.

PDK = details: reported (26); read-out: Ki value of DCA for PDK; cited from earlier work
[2] = clinical use, reference (24); cited from earlier work
mammalian LDH = details: reference (47); read-out: Ki value of oxamate for mammalian LDH; cited from earlier work
[3] = system: nasopharyngeal carcinoma cells / normal nasopharyngeal epithelial cells; details: reference (44); cited from earlier work
[4] = reference (44); cited from earlier work

Row | SMILES | tumor's response to CRT (tumor volume, FIG. 18) [1] | effectiveness of DCA versus oxamate in improving response to CRT ([1]; FIG. 18, DCA 6 mg/mouse, with CRT) | colony size (FIG. 4B) (E6E7/Ras MTE cells) | lactate production (culture medium, FIG. 5) (E6E7/Ras cells) | Ki (PDK) | clinical safety and tolerability [2] | Ki (mammalian LDH) | nasopharyngeal carcinoma cell proliferation in vitro and in vivo [3] | toxicity to normal nasopharyngeal epithelial cells in vitro [3] | tolerability in mice [4]
1 | O=C([O-])C(Cl)Cl.[Na+] [DCA, dichloroacetic acid sodium salt, reference compound] | improved tumor's response to CRT | more effective than oxamate | approximately equal reductions in colony size | reduces lactate production but to a lesser extent than the prodrugs | 10 to 250 µM | safe and well tolerated with relatively modest toxicities | – | – | – | –
2 | NC(=O)C(=O)O [oxamate, oxamic acid sodium salt] | improved tumor's response to CRT | – | – | – | – | – | 116 µM | significant suppression | minimum toxicity | well tolerated
